Measured values reported in ChEMBL document CHEMBL3872201, “Synthesis and antiproliferative activity of a natural like glycoconjugate polycyclic compound” (2016).
Active and inactive are the calls of the source. No cut-off for these calls is given here.

Experiments:
[1] = Antiproliferative activity against human MDA-MB-231 cells after 48 hrs by sulforhodamine B assay; type: functional; settings: MDA-MB-231, 48 h
[2] = Antiproliferative activity against human NCI-ADR-RES cells after 48 hrs by sulforhodamine B assay; type: functional
[3] = Antiproliferative activity against human IGROV1 cells after 48 hrs by sulforhodamine B assay; type: functional; settings: IGROV-1, 48 h
MDA-MB-231 [4] = assay: Effect on cell cycle regulatory protein in human MDA-MB-231 cells assessed as cdc2 level at 5 uM after 48 hrs by Western blot analysis relative to control; type: functional
[5] = Antiproliferative activity against human SF268 cells after 48 hrs by sulforhodamine B assay; type: functional; settings: SF-268, 48 h
[6] = Antiproliferative activity against human NCI-H23 cells after 48 hrs by sulforhodamine B assay; type: functional; settings: NCI-H23, 48 h
[7] = Cell cycle arrest in human MDA-MB-231 cells assessed as accumulation at subG0/G1 phase at 5 uM after 24 hrs by propidium iodide staining based flow cytometric analysis (reference value: 7.6%); type: functional
MDA-MB-231 [8] = assay: Effect on cell cycle regulatory protein in human MDA-MB-231 cells assessed as cyclin B1 level at 5 uM after 48 hrs by Western blot analysis relative to control; type: functional
[9] = Cell cycle arrest in human MDA-MB-231 cells assessed as accumulation at G2/M phase at 5 uM after 48 hrs by propidium iodide staining based flow cytometric analysis (reference value: 19.5%); type: functional
[10] = Antiproliferative activity against human DU145 cells after 48 hrs by sulforhodamine B assay; type: functional; settings: DU-145, 48 h
[11] = Antiproliferative activity against human MDA-MB-468 cells after 48 hrs by sulforhodamine B assay; type: functional; settings: MDA-MB-468, 48 h
[12] = Antiproliferative activity against human K562 cells after 48 hrs by sulforhodamine B assay; type: functional; settings: K562, 48 h
[13] = Antiproliferative activity against human HCC2998 cells after 48 hrs by sulforhodamine B assay; type: functional; settings: HCC 2998, 48 h
[14] = Cytotoxicity against human MDA-MB-231 cells assessed as inhibition of cell viability at 5 uM after 24 hrs by MTT assay relative to control; type: functional; settings: MDA-MB-231, 24 h
[15] = Cell cycle arrest in human MDA-MB-231 cells assessed as accumulation at G2/M phase at 5 uM after 72 hrs by propidium iodide staining based flow cytometric analysis (reference value: 19.7%); type: functional
[16] = Antiproliferative activity against human NCI-H460 cells after 48 hrs by sulforhodamine B assay; type: functional; settings: NCI-H460, 48 h
[17] = Antiproliferative activity against human SW620 cells after 48 hrs by sulforhodamine B assay; type: functional; settings: SW-620, 48 h
[18] = Antiproliferative activity against human HT-29 cells after 48 hrs by sulforhodamine B assay; type: functional; settings: HT-29, 48 h
[19] = Antiproliferative activity against human M14 cells after 48 hrs by sulforhodamine B assay; type: functional; settings: M14, 48 h
[20] = Cell cycle arrest in human MDA-MB-231 cells assessed as cell flattening at 5 to 10 uM after 8 days by light microscopic analysis; type: functional, cell-based
[21] = Antiproliferative activity against human Hs 578T cells after 48 hrs by sulforhodamine B assay; type: functional
[22] = Antiproliferative activity against human SN12C cells after 48 hrs by sulforhodamine B assay; type: functional
[23] = Antiproliferative activity against human UACC62 cells after 48 hrs by sulforhodamine B assay; type: functional; settings: UACC-62, 48 h
[24] = Cell cycle arrest in human MDA-MB-231 cells assessed as accumulation at G0/G1 phase at 10 uM after 24 hrs by propidium iodide staining based flow cytometric analysis (reference value: 66.5%); type: functional
[25] = Antiproliferative activity against human OVCAR3 cells after 48 hrs by sulforhodamine B assay; type: functional; settings: OVCAR-3, 48 h
[26] = Antiproliferative activity against human SKOV3 cells after 48 hrs by sulforhodamine B assay; type: functional; settings: SK-OV-3, 48 h
[27] = Antiproliferative activity against human SNB19 cells after 48 hrs by sulforhodamine B assay; type: functional; settings: SNB-19, 48 h
[28] = Cell cycle arrest in human MDA-MB-231 cells assessed as accumulation at G0/G1 phase at 5 uM after 24 hrs by propidium iodide staining based flow cytometric analysis (reference value: 66.5%); type: functional
[29] = Antiproliferative activity against human LOXIMVI cells after 48 hrs by sulforhodamine B assay; type: functional; settings: LOX IMVI
[30] = Antiproliferative activity against human OVCAR5 cells after 48 hrs by sulforhodamine B assay; type: functional; settings: OVCAR-5, 48 h
[31] = Antiproliferative activity against human MALME-3M cells after 48 hrs by sulforhodamine B assay; type: functional
[32] = Antiproliferative activity against human HOP62 cells after 48 hrs by sulforhodamine B assay; type: functional; settings: HOP-62, 48 h
[33] = Cell cycle arrest in human MDA-MB-231 cells assessed as accumulation at subG0/G1 phase at 5 uM after 72 hrs by propidium iodide staining based flow cytometric analysis (reference value: 6.3%); type: functional
[34] = Antiproliferative activity against human HL-60(TB) cells after 48 hrs by sulforhodamine B assay; type: functional; settings: HL-60, 48 h
[35] = read-out: LC50 (the source's name)

C=C1c2c(C)nn(-c3ccc(C#CCO[C@@H]4O[C@H](CO)[C@@H](O)[C@H](O)[C@H]4O)cc3)c2N(C)C23CC1C1(C)c4c(C)nn(-c5ccc(C#CCO[C@@H]6O[C@H](CO)[C@@H](O)[C@H](O)[C@H]6O)cc5)c4N(C)C(C)(CC12)C3 (some centres not stated)
GI50 [1]: 1.5 µM
TGI [1]: 3.06 µM
CC50 [1, 35]: 6.23 µM
GI50 [2]: 5.43 µM
TGI [2]: 47 µM
CC50 [2, 35]: 100 µM
GI50 [3]: 1.56 µM
TGI [3]: 3.95 µM
CC50 [3, 35]: 10.1 µM
fold change (FC) (MDA-MB-231 [4]): 1.5
GI50 [5]: 1.75 µM
TGI [5]: 3.57 µM
CC50 [5, 35]: 7.27 µM
GI50 [6]: 2.33 µM
TGI [6]: 6.59 µM
CC50 [6, 35]: 100 µM
Activity [7]: 7.1%
fold change (FC) (MDA-MB-231 [8]): 1
Activity [9]: 30.6%
GI50 [10]: 1.97 µM
TGI [10]: 5.16 µM
CC50 [10, 35]: 17.3 µM
GI50 [11]: 1.34 µM
TGI [11]: 2.73 µM
CC50 [11, 35]: 5.57 µM
GI50 [12]: 1.89 µM
TGI [12]: 6.75 µM
CC50 [12, 35]: > 100 µM
GI50 [13]: 1.57 µM
TGI [13]: 3.15 µM
CC50 [13, 35]: 6.32 µM
inhibition at 5 µM [14]: 65%
Activity [15]: 18.7%
GI50 [16]: 1.69 µM
TGI [16]: 3.85 µM
CC50 [16, 35]: 8.77 µM
GI50 [17]: 1.72 µM
TGI [17]: 3.77 µM
CC50 [17, 35]: 8.29 µM
GI50 [18]: 1.63 µM
TGI [18]: 4.21 µM
CC50 [18, 35]: 16.1 µM
GI50 [19]: 1.67 µM
TGI [19]: 3.44 µM
CC50 [19, 35]: 7.06 µM
Activity [20]: Active
GI50 [21]: 0.47 µM
TGI [21]: 9.85 µM
CC50 [21, 35]: 100 µM
GI50 [22]: 1.38 µM
TGI [22]: 3.72 µM
CC50 [22, 35]: 9.99 µM
GI50 [23]: 1.22 µM
TGI [23]: 2.86 µM
CC50 [23, 35]: 6.71 µM
Activity [24]: 52%
GI50 [25]: 1.52 µM
TGI [25]: 3.8 µM
CC50 [25, 35]: 9.49 µM
GI50 [26]: 1.72 µM
TGI [26]: 3.11 µM
CC50 [26, 35]: 5.61 µM
GI50 [27]: 1.66 µM
TGI [27]: 3.95 µM
CC50 [27, 35]: 9.37 µM
Activity [28]: 56.9%
GI50 [29]: 1.37 µM
TGI [29]: 2.79 µM
CC50 [29, 35]: 5.69 µM
GI50 [30]: 1.78 µM
TGI [30]: 3.54 µM
CC50 [30, 35]: 7.05 µM
GI50 [31]: 1.87 µM
TGI [31]: 3.66 µM
CC50 [31, 35]: 7.17 µM
GI50 [32]: 1.49 µM
TGI [32]: 2.88 µM
CC50 [32, 35]: 5.57 µM
Activity [33]: 4%
GI50 [34]: 2.07 µM
TGI [34]: 4.43 µM
CC50 [34, 35]: 9.49 µM
